Source: patent publication US20070275968A1, “Substituted Biphenyl Derivative” (priority 2004, published 2007)
Read-outs that look alike come from different tables or passages of the source.

Assays:
NRK-49F cells = assay: Collagen synthesis inhibition test; format: cell-based; settings: 25 ng/mL TGF-β added, cultured about 44 hr, 3H-labeled proline taken into collagen, no TGF-β = 100% inhibition, no test compound = 0% inhibition, read-out: Collagen synthesis inhibiting activity IC50
Protocol: Collagen Synthesis Inhibition Test
Collagen synthesis inhibiting activity was evaluated by the following assay.
NRK-49F cells (Dainippon Pharmaceutical) are seeded into a 96-well plate. After becoming confluent, the medium is changed to a serum-free Dulbecco's modified MEM medium (Invitrogen) containing 5 μg/mL insulin, 5 μg/mL transferin, and 5 ng/mL selenious acid. One day later, the medium is changed to a serum-free Dulbecco's modified MEM medium (80 μl) containing 10 ng/mL IGF-II (Sigma) and 50 μg/mL L-ascorbic acid (Sigma), and a ten times concentration of a test compound (10 μl) is added thereto. Thirty minutes later, 25 ng/mL TGF-β (R&D System: 10 μL) is added to the medium, and the cells are cultured for about 44 hr. Twenty four hours before the termination of the culturing, ^3H-labeled proline (Amersham: 1 μCi) is added so as to be taken into collagen in the cells. When the culturing is terminated, 30% trichloroacetic acid (50 μL) is added to the medium. After leaving for 20 min, proteins are precipitated by centrifugation at 3000 rpm for 10 min. The supernatant is removed, and the residue is twice washed with 200 μL of a washing solution (ethanol:ether=3:1). The precipitate is air-dried, and the washing solution is sufficiently removed. After addition of 60 μL of a collagenase solution (2 mg/mL collagenase VII (Sigma), 50 mM Tris-HCl (pH 7.4), 5 mM CaCl2), the resulting mixture is treated at 37° C. for 2 hr to decompose collagen. Then, 90 μL of 15% trichloroacetic acid and 5% tannic acid are added thereto. The resulting mixture is left for 20 min and then centrifuged at 3000 rpm for 10 min. The supernatant (50 μL) is transferred to LumaPlate (PerkinElmer Lifescience) and is air-dried. Then, the amount of ^3H is measured by a Top Count.

| SMILES | melting point [°C] | IC50 (NRK-49F cells; Rattus norvegicus) [µM] | IC50 (NRK-49F cells) [µM] |
| --- | --- | --- | --- |
| Cc1cccc(-c2cn(C(C)C)nc2-c2ccc(F)c(-c3cn[nH]c3)c2)n1 [Example 112, 2-{5-[4-Fluoro-3-(1H-pyrazol-4-yl)phenyl]-2-isopropyl-1H-pyrazol-4-yl}-6-methylpyridine] |  |  | 0.03 |
| Cc1cccc(-c2[nH]c(C(C)C)nc2-c2ccc(F)c(-c3ccc(S(N)(=O)=O)cc3)c2)n1 [Example 127, 2′-Fluoro-5′-[2-isopropyl-5-(6-methylpyridin-2-yl)-1H-imidazol-4-yl]-1,1′-biphenyl-4-sulfonamide] | 245 to 246 | 0.79 |  |
| Cc1cccc(-c2[nH]c(C(C)C)nc2-c2ccc(F)c(-c3ccc(OCCN4CCCCC4)cc3)c2)n1 [Example 117, 2-{4-[6-Fluoro-4′-(2-piperidin-1-ylethoxy)-1,1′-biphenyl-3-yl]-2-isopropyl-1H-imidazol-5-yl}-6-methylpyridine] |  | 1.17 |  |
| Cc1cccc(-c2[nH]c(C(C)C)nc2-c2cccc(-c3ccc(C(=O)NN4CCN(C)CC4)cc3)c2)n1 [Example 48, N-(4-Methylpiperazin-1-yl)-4-{3-[2-isopropyl-5-(6-methylpyridin-2-yl)-1H-imidazol-4-yl]phenyl}benzamide] |  | 1.49 |  |
| Cc1cccc(-c2nc(C(C)C)[nH]c2-c2ccc(F)c(-c3ccc(CN4CCOCC4)cc3)c2)n1 [Example 109] |  |  | 0.13 |
| Cc1cccc(-c2nc(C(C)C)[nH]c2-c2cccc(-c3ccc(S(N)(=O)=O)cc3)c2)n1 [Example 37, 3′-[2-Isopropyl-4-(6-methylpyridin-2-yl)-1H-imidazol-5-yl]-1,1′-biphenyl-4-sulfonamide] | 255 to 258 |  |  |
| Cc1cccc(-c2[nH]c(C(C)C)nc2-c2cccc(-c3ccc4c(c3)CCCS4)c2)n1 [Example 82, 2-{4-[3-(3,4-Dihydro-2H-thiochromen-6-yl)phenyl]-2-isopropyl-1H-imidazol-5-yl}-6-methylpyridine] | 115 to 117 |  |  |
| CNS(=O)(=O)c1ccc(-c2cccc(-c3nc(C(C)C)[nH]c3-c3cccc(C)n3)c2)cc1 [Example 38, 3′-[2-Isopropyl-5-(6-methylpyridin-2-yl)-1H-imidazol-4-yl]-N-methyl-1,1′-biphenyl-4-sulfonamide] | 96 to 100 |  |  |
| Cc1cccc(-c2nc(C(C)C)[nH]c2-c2ccc(F)c(-c3ccc(NS(=O)(=O)C4CC4)cc3)c2)n1 [Example 111, N-{2′-Fluoro-5′-[2-isopropyl-4-(6-methylpyridin-2-yl)-1H-imidazol-5-yl]-1,1′-biphenyl-4-yl}cyclopropanesulfonamide] | 119 to 129 |  |  |
| Cc1cccc(-c2[nH]c(C(C)C)nc2-c2cccc(-c3ccc4c(c3)CCS4(=O)=O)c2)n1 [Example 86, 2-{4-[3-(1,1-Dioxido-2,3-dihydro-1-benzothien-5-yl)phenyl]-2-isopropyl-1H-imidazol-5-yl}-6-methylpyridine] | 128 to 131 |  |  |
| Cc1cccc(-c2[nH]c(C(C)C)nc2-c2ccc(F)c(-c3ccc(O)cc3)c2)n1 [Example 114, 2′-Fluoro-5′-[2-isopropyl-5-(6-methylpyridin-2-yl)-1H-imidazol-4-yl]-1,1′-biphenyl-4-ol] | 143 to 145 |  |  |
| Cc1cccc(-c2[nH]c(C(C)C)nc2-c2ccc(F)c(-c3ccc[nH]3)c2)n1 [Example 93, 2-{4-[4-Fluoro-3-(1H-pyrrol-2-yl)phenyl]-2-isopropyl-1H-imidazol-5-yl}-6-methylpyridine] | 103 to 106 |  |  |
| Cc1cccc(-c2nc(C(C)C)[nH]c2-c2ccc(F)c(-c3ccco3)c2)n1 [Example 113, 2-{5-[4-Fluoro-3-(2-furyl)phenyl]-2-isopropyl-1H-imidazol-4-yl}-6-methylpyridine] | 78 to 90 |  |  |
| Cc1cccc(-c2[nH]c(C(C)C)nc2-c2ccc(F)c(-c3ccc([S+](C)[O-])nc3)c2)n1 (stereo not drawn) [Example 128, 5-{2-Fluoro-5-[2-isopropyl-5-(6-methylpyridin-2-yl)-1H-imidazol-4-yl]phenyl}-2-(methylsulfinyl)pyridine] | 100 to 102 |  |  |
| Cc1cccc(-c2[nH]c(C(C)C)nc2-c2cccc(-c3ccc(NS(=O)(=O)C4CC4)cn3)c2)n1 [Example 87, N-(6-{3-[2-Isopropyl-5-(6-methylpyridin-2-yl)-1H-imidazol-4-yl]phenyl}pyridin-3-yl)cyclopropanesulfonamide] | 133 to 136 |  |  |

More lines, main results first:

| melting point [°C] | IC50 (NRK-49F cells; Rattus norvegicus) [µM] | SMILES | IC50 (NRK-49F cells) [µM] |
| --- | --- | --- | --- |
| 110 to 112 | 0.01 | Cc1cccc(-c2n[nH]cc2-c2ccc(F)c(-c3cn[nH]c3)c2)n1 [Example 194, 2-{4-[4-Fluoro-3-(1H-pyrazol-4-yl)phenyl]-1H-pyrazol-3-yl}-6-methylpyridine] |  |
|  | 0.1 | CNS(=O)(=O)c1ccc(-c2cc(-c3c[nH]nc3-c3cccc(C)n3)ccc2F)cc1 [Example 156, 2′-Fluoro-N-methyl-5′-[3-(6-methylpyridin-2-yl)-1H-pyrazol-4-yl]-1,1′-biphenyl-4-sulfonamide] |  |
| 168 to 169 | 0.02 | Cc1cccc(-c2n[nH]cc2-c2ccc(F)c(-c3cn(C)cn3)c2)n1 [Example 172, 2-{4-[4-Fluoro-3-(1-methyl-1H-imidazol-4-yl)phenyl]-1H-pyrazol-3-yl}-6-methylpyridine] |  |
| 153 to 155 | 0.01 | Cc1cccc(-c2nc(N)sc2-c2ccc(F)c(-c3cnn(C)c3)c2)n1 [Example 217, 5-[4-Fluoro-3-(1-methyl-1H-pyrazol-4-yl)phenyl]-4-(6-methylpyridin-2-yl)-1,3-thiazol-2-amine] |  |
| 134 to 138 | 0.11 | Cc1cccc(-c2n[nH]cc2-c2ccc(F)c(-c3cn4c(n3)S(=O)(=O)CC4)c2)n1 [Example 212, 6-{2-Fluoro-5-[3-(6-methylpyridin-2-yl)-1H-pyrazol-4-yl]phenyl}-2,3-dihydroimidazo[2,1-b][1,3]thiazole 1,1-dioxide] |  |
| 100 to 103 | 0.18 | Cc1cccc(-c2[nH]c(C(C)C)nc2-c2ccc(F)c(-c3cn(C)cn3)c2)n1 [Example 130, 2-{4-[4-Fluoro-3-(1-methyl-1H-imidazol-4-yl)phenyl]-2-isopropyl-1H-imidazol-5-yl}-6-methylpyridine] |  |
|  | 0.03 | Cc1cccc(-c2n[nH]cc2-c2ccc(F)c(-c3cnn(CCO)c3)c2)n1 [Example 162, 2-(4-{2-Fluoro-5-[3-(6-methylpyridin-2-yl)-1H-pyrazol-4-yl]phenyl}-1H-pyrazol-1-yl)ethanol] |  |
| 107 to 110 |  | Cc1cccc(-c2n[nH]cc2-c2ccc(F)c(-c3ccc(S(N)(=O)=O)c(C(F)(F)F)c3)c2)n1 [Example 152, 2′-Fluoro-5′-[3-(6-methylpyridin-2-yl)-1H-pyrazol-4-yl]-3-(trifluoromethyl)-1,1′-biphenyl-4-sulfonamide] |  |
| 125 to 127 |  | Cc1cccc(-c2n[nH]cc2-c2ccc(F)c(-c3c[nH]c(C(O)CO)n3)c2)n1 (stereo not drawn) [Example 207, 1-(4-{2-Fluoro-5-[3-(6-methylpyridin-2-yl)-1H-pyrazol-4-yl]phenyl}-1H-imidazol-2-yl)ethane-1,2-diol] |  |
| 72 to 74 |  | Cc1cccc(-c2n[nH]cc2-c2ccc(F)c(-c3ccc(O)cc3)c2)n1 [Example 197, 2′-Fluoro-5′-[3-(6-methylpyridin-2-yl)-1H-pyrazol-4-yl]-1,1′-biphenyl-4-ol] |  |
| 202 to 204 |  | Cc1cccc(-c2nc(N)sc2-c2ccc(F)c(-c3ccc(S(C)(=O)=O)cc3)c2)n1 [Example 215, 5-[6-Fluoro-4′-(methylsulfonyl)-1,1′-biphenyl-3-yl]-4-(6-methylpyridin-2-yl)-1,3-thiazol-2-amine] |  |
| 89 to 92 |  | Cc1cccc(-c2n[nH]cc2-c2ccc(F)c(-c3csc(CO)n3)c2)n1 [Example 182, (4-{2-Fluoro-5-[3-(6-methylpyridin-2-yl)-1H-pyrazol-4-yl]phenyl}-1,3-thiazol-2-yl)methanol] |  |
| 102 to 105 |  | Cc1cccc(-c2[nH]c(C(C)C)nc2-c2ccc(F)c(-c3ccc(S(C)(=O)=O)nc3)c2)n1 [Example 129, 5-{2-Fluoro-5-[2-isopropyl-5-(6-methylpyridin-2-yl)-1H-imidazol-4-yl]phenyl}-2-(methylsulfonyl)pyridine] |  |
| 150 to 152 |  | Cc1cccc(-c2n[nH]cc2-c2ccc(F)c(-c3ccc(SCCO)cc3)c2)n1 [Example 169, 2-({2′-Fluoro-5′-[3-(6-methylpyridin-2-yl)-1H-pyrazol-4-yl]-1,1′-biphenyl-4-yl}thio)ethanol] |  |
| 170 to 175 |  | CCc1nc(-c2cc(-c3nc(C(C)C)[nH]c3-c3cccc(C)n3)ccc2F)c[nH]1 [Example 142, 2-{4-[3-(2-Ethyl-1H-imidazol-4-yl)-4-fluorophenyl]-2-isopropyl-1H-imidazol-5-yl}-6-methylpyridine] |  |
